Patent US10059669B2, “2-amino-3,5-difluoro-3,6-dimethyl-6-phenyl-3,4,5,6-tetrahydropyridines as BACE1 inhibitors for treating alzheimer's disease” (H. Lundbeck A/S, priority 2014, dated 2018)

Key:
[1] = target: T1, BACE1 (Homo sapiens (Human), UniProt P56817); assay: BACE1 efficacy assay (FRET-based, commercial BACE1 kit); assay type: biochemical; details: 10 μM test compound
Procedure: The efficacy assay was performed as a FRET-based assay using a commercially available BACE1 kit (Life Technologies, P2985). 2 μl test compound at 10 μM (final concentration) and 15 μl BACE1 enzyme from the kit (final concentration 3 nM) were preincubated for 15 minutes at room temperature before addition of 15 μl of substrate from the kit (250 nM final concentration) and incubated for additional 90 minutes at room temperature. The assay plate was subsequently read in a Pherastar (Ex540/Em590). The enzyme activity observed in presence of test compound were normalized to the enzyme activity observed in presence of buffer and 10 μM (final concentration) of the high affinity BACE1 reference inhibitor (S)-6-[3-Chloro-5-(5-prop-1-ynyl-pyridin-3-yl)-thiophen-2-yl]-2-imino-3,6-dimethyl-tetra-hydropyrimidin-4-one, respectively. The efficacy of the test compounds was evaluated at 10 μM (final concentration) and defined as the percent inhibition of the enzyme activity using the equation % inhibition=100%−normalized enzyme activity in percent.

[2] = test system: P-gp (MDR1); assay: MDCK-MDR1 assay (permeability, efflux ratio); assay type: in vitro ADME; details: dog, Papp BA/Papp AB, 60-minute incubation, Pgp substrate when ≥2
Procedure: The permeability of the test compounds was assessed in MDCK-MDR1 cells that were cultured to confluency (4-6 days) in a 96 transwell plate. Test compounds were diluted with the transport buffer (HBSS+1% BSA) to a concentration of 0.5 μM and applied to the apical or basolateral side of the cell monolayer. Permeation of the test compounds from A to B direction or B to A direction was determined in triplicate over a 60-minute incubation time at 37° C. and 5% CO2 with a relative humidity of 95%. Test compounds were quantified by LC-MS/MS analysis based on the peaks area ratios of analyte/IS in both the receiver and donor wells of the transwell plate.
The apparent permeability coefficient Papp (cm/s) was calculated using the equation: Papp=(dCr/dt)×Vr/(A×C0)
Where dCr/dt is the cumulative concentration of compound in the receiver chamber as a function of time (M/s); Vr is the solution volume in the receiver chamber (0.05 mL on the apical side; 0.25 mL on the basolateral side); A is the surface area for the transport, i.e. 0.0804 cm^2 for the area of the monolayer; C0 is the initial concentration in the donor chamber (VIM).
Compounds are classified Pgp substrates when efflux ratio (Papp BA/Papp AB) is ≥2.

[3] = target: T1, BACE1; assay: BACE1 binding assay (SPA-based radioligand binding); details: pH 4.5, 10 nM radioligand, Ki calculated from IC50
Procedure: The binding assay was performed as SPA-based assay using a biotinylated form of human BACE1 recombinantly expressed and subsequently purified from Freestyle HEK293 cells. The binding assay was run in a 50 mM sodium acetate buffer, pH 4.5 containing 50 mM NaCl and 0.03% Tween-20 in white clear bottom 384 plates (Corning #3653). 10 nM (final concentration) radioligand ([^3H]—N-((1S,2R)-1-benzyl-3-cyclopropylamino-2-hydroxy-propyl)-5-(methanesulfonyl-methyl-amino)-N—((R)-1-phenyl-ethyl)-isophthalamide) (TRQ11569 purchased from GE Healthcare) was mixed with test compound at a given concentration, 6 nM (final concentration) human BACE1 and 25 μg Streptavidin coated PVT core SPA beads (RPNQ0007, GE Healthcare Life Sciences) in a total volume of 40 μl. Several concentrations of each test compound were tested in the assay for IC50 determination. The plates were incubated for one hour at room temperature and counted in a Wallac Trilux counter. Total and non-specific binding were determined using buffer and 1 μM (final concentration) of the high affinity BACE1 reference inhibitor (S)-6-[3-chloro-5-(5-prop-1-ynyl-pyridin-3-yl)-thiophen-2-yl]-2-imino-3,6-dimethyl-tetrahydro-pyrimidin-4-one, respectively. For each test compound, a IC50 value (the concentration mediating 50% inhibition of the specific binding of the radioligand) was determined from concentration-response curve and used to calculate the Ki from the equation Ki=IC50/(1+L/Kd), where L and Kd are the final concentration of the radioligand used in the assay and the dissociation constant of the radioligand, respectively. The Kd of the radioligand was determined from saturation binding experiments.

T1 sequence (P56817 46-501): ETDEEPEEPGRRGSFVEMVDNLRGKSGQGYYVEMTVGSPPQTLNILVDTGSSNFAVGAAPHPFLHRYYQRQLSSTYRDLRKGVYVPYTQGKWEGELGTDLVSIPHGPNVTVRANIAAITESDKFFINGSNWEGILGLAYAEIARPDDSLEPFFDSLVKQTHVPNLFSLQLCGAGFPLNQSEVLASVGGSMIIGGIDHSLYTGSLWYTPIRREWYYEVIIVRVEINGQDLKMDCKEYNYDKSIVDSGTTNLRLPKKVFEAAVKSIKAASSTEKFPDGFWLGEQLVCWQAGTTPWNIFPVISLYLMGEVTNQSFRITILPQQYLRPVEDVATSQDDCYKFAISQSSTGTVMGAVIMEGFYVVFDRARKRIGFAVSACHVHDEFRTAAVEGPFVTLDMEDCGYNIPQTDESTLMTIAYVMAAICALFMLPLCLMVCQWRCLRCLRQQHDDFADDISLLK

inhibition at 10 µM [1]	efflux ratio at 60 min, 0.5 μM [2]	Ki [3]	SMILES
108%	11.7	62 nM	C[C@@]1(F)C[C@H](F)[C@@](C)(c2cc(NC(=O)c3coc(C(F)F)n3)ccc2F)N=C1N [Compound 13, N-(3-((2R,3S,5R)-6-amino-3,5-difluoro-2,5-dimethyl-2,3,4,5-tetrahydropyridin-2-yl)-4-fluorophenyl)-2-(difluoromethyl)oxazole-4-carboxamide]
101%	1.17	98 nM	C[C@@]1(F)C[C@H](F)[C@@](C)(c2cc(NC(=O)c3ccc(F)cn3)ccc2F)N=C1N [Compound 4, N-(3-((2R,3S,5R)-6-amino-3,5-difluoro-2,5-dimethyl-2,3,4,5-tetrahydropyridin-2-yl)-4-fluorophenyl)-5-fluoropicolinamide]
117%	1.15	4.1 nM	Cc1cc(C#N)cnc1C(=O)Nc1ccc(F)c([C@@]2(C)N=C(N)[C@@](C)(F)C[C@@H]2F)c1 [Compound 21, N-(3-((2R,3S,5S)-6-amino-3,5-difluoro-2,5-dimethyl-2,3,4,5-tetrahydropyridin-2-yl)-4-fluorophenyl)-5-cyano-3-methylpicolinamide]
112%	15.8	45 nM	C[C@@]1(F)C[C@H](F)[C@@](C)(c2cc(NC(=O)c3ccn(C(F)F)n3)ccc2F)N=C1N [Compound 14, N-(3-((2R,3S,5R)-6-amino-3,5-difluoro-2,5-dimethyl-2,3,4,5-tetrahydropyridin-2-yl)-4-fluorophenyl)-1-(difluoromethyl)-1H-pyrazole-3-carboxamide]
99%	0.79	26 nM	COc1cnc(C(=O)Nc2ccc(F)c([C@@]3(C)N=C(N)[C@@](C)(F)C[C@@H]3F)c2)cn1 [Compound 2, N-(3-((2R,3S,5S)-6-amino-3,5-difluoro-2,5-dimethyl-2,3,4,5-tetrahydropyridin-2-yl)-4-fluorophenyl)-5-methoxypyrazine-2-carboxamide]
102%	5.67	39 nM	COc1ccc(C(=O)Nc2ccc(F)c([C@@]3(C)N=C(N)[C@](C)(F)C[C@@H]3F)c2)nc1 [Compound 7, N-(3-((2R,3S,5R)-6-amino-3,5-difluoro-2,5-dimethyl-2,3,4,5-tetrahydropyridin-2-yl)-4-fluorophenyl)-5-methoxypicolinamide]
103%		4.3 nM	C[C@]1(F)C[C@H](F)[C@@](C)(c2cc(NC(=O)c3ccc(Br)cn3)ccc2F)N=C1N [Compound 24, N-(3-((2R,3S,5S)-6-amino-3,5-difluoro-2,5-dimethyl-2,3,4,5-tetrahydropyridin-2-yl)-4-fluorophenyl)-5-bromopicolinamide]
101%	0.52	3.6 nM	[2H]C([2H])([2H])Oc1ccc(C(=O)Nc2cc(F)c(F)c([C@@]3(C)N=C(N)[C@@](C)(F)C[C@@H]3F)c2)nc1 [Compound 22, N-(3-((2R,3S,5S)-6-amino-3,5-difluoro-2,5-dimethyl-2,3,4,5-tetrahydropyridin-2-yl)-4,5-difluorophenyl)-5-(methoxy-d3)picolinamide]
108%	2.07	100 nM	C[C@@]1(F)C[C@H](F)[C@@](C)(c2cc(NC(=O)c3cnc(C(F)F)cn3)ccc2F)N=C1N [Compound 15, N-(3-((2R,3S,5R)-6-amino-3,5-difluoro-2,5-dimethyl-2,3,4,5-tetrahydropyridin-2-yl)-4-fluorophenyl)-5-(difluoromethyl)pyrazine-2-carboxamide]
103%	1.09	30 nM	C[C@]1(F)C[C@H](F)[C@@](C)(c2cc(NC(=O)c3ccc(F)cn3)ccc2F)N=C1N [Compound 1, N-(3-((2R,3S,5S)-6-Amino-3,5-difluoro-2,5-dimethyl-2,3,4,5-tetrahydropyridin-2-yl)-4-fluorophenyl)-5-fluoropicolinamide]
100%	0.95	58 nM	[2H]C([2H])([2H])Oc1ccc(C(=O)Nc2ccc(F)c([C@@]3(C)N=C(N)[C@](C)(F)C[C@@H]3F)c2)nc1 [Compound 8, N-(3-((2R,3S,5R)-6-amino-3,5-difluoro-2,5-dimethyl-2,3,4,5-tetrahydropyridin-2-yl)-4-fluorophenyl)-5-(methoxy-d3)picolinamide]
101%	1.1	58 nM	Cc1nc(C(=O)Nc2ccc(F)c([C@@]3(C)N=C(N)[C@](C)(F)C[C@@H]3F)c2)co1 [Compound 6, N-(3-((2R,3S,5R)-6-amino-3,5-difluoro-2,5-dimethyl-2,3,4,5-tetrahydropyridin-2-yl)-4-fluorophenyl)-2-methyloxazole-4-carboxamide]
104%		190 nM	C[C@@]1(F)C[C@H](F)[C@@](C)(c2cc(NC(=O)c3cnc(C(F)(F)F)cn3)ccc2F)N=C1N [Compound 11, N-(3-((2R,3S,5R)-6-amino-3,5-difluoro-2,5-dimethyl-2,3,4,5-tetrahydropyridin-2-yl)-4-fluorophenyl)-5-(trifluoromethyl)pyrazine-2-carboxamide]
103%	1.6	220 nM	C[C@@]1(F)C[C@H](F)[C@@](C)(c2cc(NC(=O)c3ccc(Cl)cc3)ccc2F)N=C1N [Compound 16, N-(3-((2R,3S,5R)-6-amino-3,5-difluoro-2,5-dimethyl-2,3,4,5-tetrahydropyridin-2-yl)-4-fluorophenyl)-4-chlorobenzamide]
	1.53	51 nM	COc1cnc(C(=O)Nc2ccc(F)c([C@@]3(C)N=C(N)[C@](C)(F)C[C@@H]3F)c2)cn1 [Compound 5, N-(3-((2R,3S,5R)-6-amino-3,5-difluoro-2,5-dimethyl-2,3,4,5-tetrahydropyridin-2-yl)-4-fluorophenyl)-5-methoxypyrazine-2-carboxamide]
118%		99 nM	Cc1csc(C(=O)Nc2ccc(F)c([C@@]3(C)N=C(N)[C@](C)(F)C[C@@H]3F)c2)n1 [Compound 12, N-(3-((2R,3S,5R)-6-amino-3,5-difluoro-2,5-dimethyl-2,3,4,5-tetrahydropyridin-2-yl)-4-fluorophenyl)-4-methylthiazole-2-carboxamide]
115%		820 nM	Cn1ccnc1C(=O)Nc1ccc(F)c([C@@]2(C)N=C(N)[C@](C)(F)C[C@@H]2F)c1 [Compound 10, N-(3-((2R,3S,5R)-6-amino-3,5-difluoro-2,5-dimethyl-2,3,4,5-tetrahydropyridin-2-yl)-4-fluorophenyl)-1-methyl-1H-imidazole-2-carboxamide]
	0.45	39 nM	C[C@@]1(F)C[C@H](F)[C@@](C)(c2cc(NC(=O)c3ccc(C#N)cn3)ccc2F)N=C1N [Compound 17, N-(3-((2R,3S,5R)-6-amino-3,5-difluoro-2,5-dimethyl-2,3,4,5-tetrahydropyridin-2-yl)-4-fluorophenyl)-5-cyanopicolinamide]
